This note sets out measurements from patent US9527851B2, “Pyrrole six-membered heteroaryl ring derivative, preparation method thereof, and medicinal uses thereof” (Jiangsu Hengrui Medicine Co., Ltd., priority 2011, dated 2016).

The term AUC denotes concentration integrated over time. The half-life is the time in which the quantity being followed falls by half. As a reminder, the MRT is a mean duration of stay, worked out from the concentration-time curve. The term Cmax denotes the peak of the concentration-time curve.

One data set addresses JAK1 kinase (Homo sapiens (Human), UniProt P23458). Put plainly: Assay for inhibiting JAK1 kinase (in vitro kinase assay, HRP anti-phosphotyrosine antibody/TMB absorbance). The class given is biochemical. Particulars: 20 μM ATP, 50 minutes at room temperature; read-out: IC50 (JAK1/Bio). The protocol: In vitro activity of compounds of the present invention for inhibiting JAK1 kinase was determined by the following method.
IC50 values of test compounds was calculated from the data of the test compounds in inhibiting the activity of JAK1 kinase at different concentrations.

A short description of data set [1]: Pharmacokinetics assay in rats, intragastric administration, plasma by LC/MS/MS. The class given is in vivo, Sprague-Dawley (SD) rats. Particulars: both sexes, Sprague-Dawley, rat, plasma, po, SD rats, 10 mg/kg; for Vd/F: read-out: Apparent Distribution Volume Vz/F; for AUC: read-out: Area Under Curve AUC; for CL/F: read-out: Clearance CL/F; for half-life: read-out: Half-Life t½ (converted); for MRT: read-out: Mean Residence Time MRT; for Cmax: read-out: Plasma Conc. Cmax. The protocol:
Rats were used as test animals. […] The pharmacokinetic behavior of the compounds of the present invention was studied and evaluated in rats.
56 Healthy adult Sprague-Dawley (SD) rats, half male and half female, purchased from SINO-BRITSH SIPPR/BK LAB.
The appropriate amount of test compounds were weighed and mixed with 1.0 mL of dimethyl sulfoxide to prepare a 1.0 mg/mL suspension.
After an overnight fast, SD rats were administered intragastrically at a dose of 10.0 mg/kg and an administration volume of 10 mL/kg.
The plasma samples were stored at −20° C. The rats were fed 2 hours after administration.
Content determination of the test compounds in rat plasma after intragastrically administering at different concentrations: 50 μL of rat plasmas taken at various time points after administration were mixed with 50 μL of internal standard solution and 100 μL of methanol and mixed for 3 minutes by a vortexer. The mixture was centrifuged for 10 minutes at 13,500 rpm. 10 μL of the supernatant was taken from the plasma sample and analyzed by LC-MS/MS.
Pharmacokinetic Parameters of the compounds of the present invention were shown as follows: […]

A further data set deals with JAK2 kinase (Homo sapiens (Human), UniProt O60674). The experiment in a line: Assay for inhibiting JAK2 kinase (in vitro kinase assay, HRP anti-phosphotyrosine antibody/TMB absorbance). Particulars: 20 μM ATP, 50 minutes at room temperature; read-out: IC50 (JAK2/Bio). Format: biochemical. The protocol:
In vitro activity of compounds of the present invention for inhibiting JAK2 kinase was determined by the following method.

In another data set the target is JAK3 kinase (Homo sapiens (Human), UniProt P52333). Put plainly: Assay for inhibiting JAK3 kinase (in vitro kinase assay, HRP anti-phosphotyrosine antibody/TMB absorbance). Format: biochemical. Particulars: 50 minutes at room temperature; read-out: IC50 (JAK3/Bio). The protocol: In vitro activity of compounds of the present invention for inhibiting JAK3 kinase was determined by the following method.
Chain of JAK3 kinase (P52333 whole entry): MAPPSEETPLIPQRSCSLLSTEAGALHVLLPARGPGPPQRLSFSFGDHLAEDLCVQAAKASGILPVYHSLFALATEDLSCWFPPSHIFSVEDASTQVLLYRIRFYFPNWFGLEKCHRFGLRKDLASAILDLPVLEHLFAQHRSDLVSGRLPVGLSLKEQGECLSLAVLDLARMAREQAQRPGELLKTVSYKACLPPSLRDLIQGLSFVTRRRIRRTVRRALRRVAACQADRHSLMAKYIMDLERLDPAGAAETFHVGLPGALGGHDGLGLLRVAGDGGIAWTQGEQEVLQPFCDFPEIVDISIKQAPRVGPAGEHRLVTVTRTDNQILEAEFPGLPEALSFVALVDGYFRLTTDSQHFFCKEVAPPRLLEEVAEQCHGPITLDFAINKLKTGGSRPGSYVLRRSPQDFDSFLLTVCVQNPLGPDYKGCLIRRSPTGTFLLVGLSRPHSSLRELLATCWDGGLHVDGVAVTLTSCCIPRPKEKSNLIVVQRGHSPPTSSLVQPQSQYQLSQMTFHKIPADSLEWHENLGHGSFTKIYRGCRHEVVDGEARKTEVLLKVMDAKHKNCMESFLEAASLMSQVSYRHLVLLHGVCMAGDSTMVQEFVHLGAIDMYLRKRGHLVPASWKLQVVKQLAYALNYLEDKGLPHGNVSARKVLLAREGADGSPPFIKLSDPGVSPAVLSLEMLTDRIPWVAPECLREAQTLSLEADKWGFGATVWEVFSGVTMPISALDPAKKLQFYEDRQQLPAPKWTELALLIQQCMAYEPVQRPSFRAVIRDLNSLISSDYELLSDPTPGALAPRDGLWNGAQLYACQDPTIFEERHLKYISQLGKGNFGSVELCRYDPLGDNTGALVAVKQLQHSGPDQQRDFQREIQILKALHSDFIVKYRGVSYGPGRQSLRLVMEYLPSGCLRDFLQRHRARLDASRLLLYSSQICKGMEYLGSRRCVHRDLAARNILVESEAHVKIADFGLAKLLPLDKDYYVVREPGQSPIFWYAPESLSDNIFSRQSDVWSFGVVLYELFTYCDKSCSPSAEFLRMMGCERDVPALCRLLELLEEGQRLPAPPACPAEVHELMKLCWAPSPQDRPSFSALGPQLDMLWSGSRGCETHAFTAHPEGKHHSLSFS

Chain of JAK2 kinase (O60674 whole entry): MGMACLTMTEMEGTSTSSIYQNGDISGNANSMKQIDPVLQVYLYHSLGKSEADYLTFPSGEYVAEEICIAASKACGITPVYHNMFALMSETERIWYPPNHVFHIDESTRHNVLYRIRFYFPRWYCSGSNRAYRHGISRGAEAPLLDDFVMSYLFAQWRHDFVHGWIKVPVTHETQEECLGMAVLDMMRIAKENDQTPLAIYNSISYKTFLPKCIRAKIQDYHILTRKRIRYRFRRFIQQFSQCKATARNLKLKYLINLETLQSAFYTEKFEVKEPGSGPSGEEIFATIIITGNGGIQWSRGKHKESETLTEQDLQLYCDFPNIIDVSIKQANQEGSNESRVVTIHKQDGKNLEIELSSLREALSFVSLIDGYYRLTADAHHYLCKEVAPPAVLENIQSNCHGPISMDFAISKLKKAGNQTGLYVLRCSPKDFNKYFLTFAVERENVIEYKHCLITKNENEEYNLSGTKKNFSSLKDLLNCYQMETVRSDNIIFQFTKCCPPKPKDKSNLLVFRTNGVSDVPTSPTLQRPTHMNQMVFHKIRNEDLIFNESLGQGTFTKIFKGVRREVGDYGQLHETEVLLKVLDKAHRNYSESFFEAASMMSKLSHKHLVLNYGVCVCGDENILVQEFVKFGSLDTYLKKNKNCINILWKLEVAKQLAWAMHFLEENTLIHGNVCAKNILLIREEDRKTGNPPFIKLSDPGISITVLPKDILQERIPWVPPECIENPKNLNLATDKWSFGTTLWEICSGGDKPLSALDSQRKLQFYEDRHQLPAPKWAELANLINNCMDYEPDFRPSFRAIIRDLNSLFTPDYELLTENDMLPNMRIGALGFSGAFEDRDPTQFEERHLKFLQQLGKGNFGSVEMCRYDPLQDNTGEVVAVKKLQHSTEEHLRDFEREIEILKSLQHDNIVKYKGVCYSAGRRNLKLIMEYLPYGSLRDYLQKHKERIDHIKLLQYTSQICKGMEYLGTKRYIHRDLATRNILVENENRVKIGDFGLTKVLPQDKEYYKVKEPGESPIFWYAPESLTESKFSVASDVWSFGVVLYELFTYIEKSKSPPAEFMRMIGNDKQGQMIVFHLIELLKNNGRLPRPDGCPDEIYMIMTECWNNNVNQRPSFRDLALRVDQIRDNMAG
Chain of JAK1 kinase (P23458 whole entry): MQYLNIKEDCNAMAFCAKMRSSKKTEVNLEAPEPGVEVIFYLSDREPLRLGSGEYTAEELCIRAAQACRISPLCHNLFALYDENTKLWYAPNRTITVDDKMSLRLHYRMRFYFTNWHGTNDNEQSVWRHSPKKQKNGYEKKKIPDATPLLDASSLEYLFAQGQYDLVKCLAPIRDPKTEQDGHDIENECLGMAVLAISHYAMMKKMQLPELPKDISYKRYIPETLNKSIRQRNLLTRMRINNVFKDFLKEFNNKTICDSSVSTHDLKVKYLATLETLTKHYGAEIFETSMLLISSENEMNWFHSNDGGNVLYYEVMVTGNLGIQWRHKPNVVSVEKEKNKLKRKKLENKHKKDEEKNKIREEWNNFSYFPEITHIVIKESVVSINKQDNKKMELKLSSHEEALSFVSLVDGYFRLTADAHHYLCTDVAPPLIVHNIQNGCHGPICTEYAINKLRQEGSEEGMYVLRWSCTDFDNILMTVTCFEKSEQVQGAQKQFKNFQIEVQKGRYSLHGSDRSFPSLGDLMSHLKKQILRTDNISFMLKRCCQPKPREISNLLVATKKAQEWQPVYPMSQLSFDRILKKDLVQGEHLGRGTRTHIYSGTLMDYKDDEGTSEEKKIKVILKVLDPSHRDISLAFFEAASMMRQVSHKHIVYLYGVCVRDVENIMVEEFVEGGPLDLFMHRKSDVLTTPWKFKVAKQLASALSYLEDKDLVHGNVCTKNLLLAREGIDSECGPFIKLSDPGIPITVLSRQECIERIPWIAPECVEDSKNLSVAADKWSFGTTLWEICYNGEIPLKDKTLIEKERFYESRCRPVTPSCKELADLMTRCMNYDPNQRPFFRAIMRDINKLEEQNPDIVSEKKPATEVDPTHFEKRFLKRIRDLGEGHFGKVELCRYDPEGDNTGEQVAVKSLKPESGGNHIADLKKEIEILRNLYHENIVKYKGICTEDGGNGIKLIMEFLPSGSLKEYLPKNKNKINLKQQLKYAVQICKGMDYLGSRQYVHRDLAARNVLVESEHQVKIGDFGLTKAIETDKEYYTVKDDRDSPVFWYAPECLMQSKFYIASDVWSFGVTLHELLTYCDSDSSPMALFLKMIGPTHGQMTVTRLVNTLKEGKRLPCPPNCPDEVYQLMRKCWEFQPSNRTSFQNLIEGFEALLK

With `CN(c1ncnc2[nH]ccc12)[C@H]1C[C@@H]2CN(C(=O)CCC#N)C[C@@H]2C1` [Example 22, 4-((3aR,5S,6aS)-5-(Methyl(7H-pyrrolo[2,3-d]pyrimidin-4-yl)amino)hexahydrocyclopenta[c]pyrrol-2(1H)-yl)-4-oxobutanenitrile], on JAK1 kinase, the IC50 is 16 nM. In data set [1], the Vd/F amounted to 9.39 ± 8.06 L/kg, the AUC is 6990 ± 4560 ng·h/mL, the CL/F worked out at 34.6 ± 22.7 mL/min/kg and the half-life was 2.87 ± 0.7 h. In data set [1], the MRT worked out at 2.6 ± 0.1 h and the peak concentration (Cmax) came out at 2960 ± 2110 ng/mL. Further, the IC50 on JAK2 kinase was 54 nM.
Consider `COc1nsc(NC(=O)N2C[C@H]3C[C@H](N(C)c4ncnc5[nH]ccc45)C[C@H]3C2)n1` [Example 34, (3aR,5S,6aS)—N-(3-Methoxy-1,2,4-thiadiazol-5-yl)-5-(methyl(7H-pyrrolo[2,3-d]pyrimidin-4-yl)amino)hexahydrocyclopenta[c]pyrrole-2(1H)-carboxamide], for which the IC50 at JAK1 kinase was determined as 2 nM. Besides, in data set [1], the Vd/F is 2.76 ± 1.53 L/kg, the area under the curve (AUC) worked out at 14900 ± 10400 ng·h/mL, the CL/F was found to be 18.3 ± 14.2 mL/min/kg and the half-life is 2.1 ± 0.73 h. Further, in data set [1], the MRT came out at 3.81 ± 0.82 h and the Cmax was determined as 2670 ± 1450 ng/mL. The IC50 at JAK2 kinase is 5 nM.
As for `CC(=O)N1CC[C@H]2CC(N(C)c3ncnc4[nH]ccc34)C[C@H]2C1` (stereo partly drawn) [Example 35, 1-((4aS,7aR)-6-(Methyl(7H-pyrrolo[2,3-d]pyrimidin-4-yl)amino)hexahydro-1H-cyclopenta[c]pyridin-2(3H,4H,4aH,5H,6H,7H,7aH)-yl)ethanone], the IC50 on JAK1 kinase was found to be 3 nM. Besides, in data set [1], the Vd/F turned out to be 10.4 ± 2.04 L/kg, the AUC came to 3080 ± 1340 ng·h/mL, the CL/F was determined as 63.3 ± 28 mL/min/kg and the half-life is 2.11 ± 0.67 h. Also, in data set [1], the mean residence time (MRT) was determined as 3.02 ± 1.33 h and the Cmax is 1220 ± 244 ng/mL. The IC50 at JAK2 kinase was found to be 16 nM.
On to `CCc1nsc(NC(=O)N2C[C@H]3C[C@H](N(C)c4ncnc5[nH]ccc45)C[C@H]3C2)n1` [Example 48, (3aR,5S,6aS)—N-(3-Ethyl-1,2,4-thiadiazol-5-yl)-5-(methyl(7H-pyrrolo[2,3-d]pyrimidin-4-yl)amino)hexahydrocyclopenta[c]pyrrole-2(1H)-carboxamide], for which the IC50 on JAK1 kinase worked out at 1 nM. In data set [1], the Vd/F worked out at 7.2 ± 8.11 L/kg, the AUC was 9620 ± 7910 ng·h/mL, the CL/F was determined as 31.9 ± 26.9 mL/min/kg and the half-life is 2.43 ± 0.75 h. In data set [1], the MRT amounted to 3.4 ± 0.91 h and the Cmax was determined as 2070 ± 1470 ng/mL. Moreover, the IC50 on JAK2 kinase is 31 nM.
As for `CN(c1ncnc2[nH]ccc12)[C@H]1C[C@@H]2CN(C(=O)Nc3nc(C4CC4)ns3)C[C@@H]2C1` [Example 49, (3aR,5S,6aS)—N-(3-Cyclopropyl-1,2,4-thiadiazol-5-yl)-5-(methyl(7H-pyrrolo[2,3-d]pyrimidin-4-yl)amino)hexahydrocyclopenta[c]pyrrole-2(1H)-carboxamide], the IC50 on JAK1 kinase was 0.2 nM. For the same compound, in data set [1], the Vd/F stood at 18.1 ± 20.7 L/kg, the exposure (AUC) was 6000 ± 4740 ng·h/mL, the CL/F was 46.1 ± 35.6 mL/min/kg and the Cmax amounted to 1060 ± 677 ng/mL. On JAK2 kinase, the IC50 was found to be 14 nM.
As for `Cc1noc(N2C[C@H]3C[C@H](N(C)c4ncnc5[nH]ccc45)C[C@H]3C2)n1` [Example 61, N-methyl-N-((3aR,5S,6aS)-2-(3-methyl-1,2,4-oxadiazol-5-yl)octahydrocyclopenta[c]pyrrol-5-yl)-7H-pyrrolo[2,3-d]pyrimidin-4-amine], the IC50 at JAK1 kinase amounted to 128 nM; at JAK2 kinase it was 25 nM.
The corresponding values for `CN(c1ncnc2[nH]ccc12)[C@@H]1C[C@@H]2CN(CCC#N)C[C@@H]2C1` [Example 68, 3-((3aR,5R,6aS)-5-(methyl(7H-pyrrolo[2,3-d]pyrimidin-4-yl)amino)hexahydrocyclopenta[c]pyrrol-2(1H)-yl)propanenitrile] are 17 nM and 18 nM.
Taken in the same sequence, the figures for `CN(c1ncnc2[nH]ccc12)[C@@H]1C[C@@H]2CN(C(=O)Nc3nncs3)C[C@@H]2C1` [Example 73, (3aR,5R,6aS)-5-(methyl(7H-pyrrolo[2,3-d]pyrimidin-4-yl)amino)-N-(1,3,4-thiadiazol-2-yl)hexahydrocyclopenta[c]pyrrole-2(1H)-carboxamide] were 75 nM and 47 nM.
Turning to `COc1nsc(NC(=O)N2C[C@H]3C[C@@H](N(C)c4ncnc5[nH]ccc45)C[C@H]3C2)n1` [Example 74, (3aR,5R,6aS)-N-(3-methoxy-1,2,4-thiadiazol-5-yl)-5-(methyl(7H-pyrrolo[2,3-d]pyrimidin-4-yl)amino)hexahydrocyclopenta[c]pyrrole-2(1H)-carboxamide], the figures for the IC50 at JAK1 kinase and on JAK2 kinase were 4 nM and 56 nM, respectively.
On to `CN(c1ncnc2[nH]ccc12)[C@@H]1C[C@@H]2CN(C(=O)CCC#N)C[C@@H]2C1` [Example 75, 4-((3aR,5R,6aS)-5-(methyl(7H-pyrrolo[2,3-d]pyrimidin-4-yl)amino)hexahydrocyclopenta[c]pyrrol-2(1H)-yl)-4-oxobutanenitrile], for which the IC50 at JAK1 kinase worked out at 46 nM; at JAK2 kinase, 156 nM.
Consider `CN(c1ncnc2[nH]ccc12)[C@H]1C[C@@H]2CN(C(=O)Nc3nncs3)C[C@@H]2C1` [Example 86, (3aR,5S,6aS)-5-(methyl(7H-pyrrolo[2,3-d]pyrimidin-4-yl)amino)-N-(1,3,4-thiadiazol-2-yl)hexahydrocyclopenta[c]pyrrole-2(1H)-carboxamide], for which the IC50 at JAK1 kinase was 10 nM; on JAK2 kinase, 52 nM.
Taken in the same sequence, the figures for `CN(c1ncnc2[nH]ccc12)[C@H]1C[C@@H]2CN(C(=O)[C@H](O)CO)C[C@@H]2C1` [Example 92, (R)-2,3-dihydroxy-1-((3aR,5S,6aS)-5-(methyl(7H-pyrrolo[2,3-d]pyrimidin-4-yl)amino)hexahydrocyclopenta[c]pyrrol-2(1H)-yl)propan-1-one] were 131 nM and 203 nM.
`CN(c1ncnc2[nH]ccc12)[C@H]1C[C@@H]2CN(C(=O)C(O)C(F)(F)F)C[C@@H]2C1` (stereo partly drawn) [Example 97, 3,3,3-trifluoro-2-hydroxy-1-((3aR,5S,6aS)-5-(methyl(7H-pyrrolo[2,3-d]pyrimidin-4-yl)amino)hexahydrocyclopenta[c]pyrrol-2(1H)-yl)propan-1-one]: the IC50 at JAK3 kinase came to 110 nM.
On to `COc1nsc(NC(=O)N2C[C@H]3C[C@H](N(C)c4ccnc5[nH]ccc45)C[C@H]3C2)n1` [Example 113, (3aR,5S,6aS)-N-(3-methoxy-1,2,4-thiadiazol-5-yl)-5-(methyl(1H-pyrrolo[2,3-b]pyridin-4-yl)amino)hexahydrocyclopenta[c]pyrrole-2(1H)-carboxamide], for which the IC50 worked out at 23 nM on JAK1 kinase and 178 nM at JAK2 kinase.
Consider `CN(C[C@H]1[C@@H]2CN(C(=O)OC(C)(C)C)C[C@@H]21)c1ncnc2[nH]ccc12` [Example 133, (1R,5S,6S)-tert-butyl 6-((methyl(7H-pyrrolo[2,3-d]pyrimidin-4-yl)amino)methyl)-3-azabicyclo[3.1.0]hexane-3-carboxylate], for which the IC50 at JAK3 kinase amounted to 90 nM.
For `COc1nnc(NC(=O)N2C[C@H]3C[C@H](N(C)c4ncnc5[nH]ccc45)C[C@H]3C2)s1` [Example 155, (3aR,5S,6aS)-N-(5-methoxy-1,3,4-thiadiazol-2-yl)-5-(methyl(7H-pyrrolo[2,3-d]pyrimidin-4-yl)amino)hexahydrocyclopenta[c]pyrrole-2(1H)-carboxamide], the figures for the IC50 on JAK1 kinase and on JAK2 kinase were 4 nM and 41 nM, respectively.
